Source: patent US20260256771A1, “GALUNISERTIB FOR USE IN THE TREATMENT OF ANDROGENIC ALOPECIA” (SAÚDE VIÁVEL, S.A., priority 2022, published 2026)

Legend:
β-catenin = assay: Immunohistochemistry of cryo-sectioned HFOCs: β-catenin; format: cell-based, human; conditions: DP adjacent epithelial compartment; Galunisertib 48 h vs untreated
From the text: (§1) Hair growth percentages is normalized to day 0.
FIG. 6. Galunisertib improves the WNT signaling in the bulb epithelial compartment. a) Representative IHC images of tissue sections of HFOCs with and without Galunisertib and stained for LEF1 (red) and β-catenin (green). Nuclei were counterstained with DAPI (blue). Scale bar, 100 μm. b,e) Adjusted intensity levels of LEF1 and β-catenin per DP and HB (bulb epithelium) areas, as measured in tissue sections from HFOCs with and without Galunisertib. All values are mean±SD of HFOCs established from n=4 donors (n>8 HFs per condition). ns p≥0.05, *p≤0.05 by unpaired t-test.
(§2) For immunohistochemistry, 2-day HFOCs are used for immunohistochemistry analysis. Briefly, HFs were embedded on a drop of OCT and stored at −80° C. 8 μm cryosections are air-dried and fixed in 4% PFA (for TGFβ2, cleavage Caspase 3, p-SMAD2 and KI67 immunostainings) or cold acetone (for LEF1 and β-catenin immunostaining). Following 2×5 min rinse with PBS, microsections are permeabilized 2× for 10 min with PBS+0.3% Triton X 100 (PBS-T) and then blocked with PBS+10% fetal bovine serum (FBS) for 1 hour at room temperature. Antibodies are diluted in PBS-T+1% FBS and incubation done overnight at 4° C. […]

cleaved Caspase 3 = assay: Immunohistochemistry of cryo-sectioned HFOCs: cleaved Caspase 3; format: cell-based, human; conditions: mainly detected in the DP; HFOCs treated with Galunisertib for 48 h vs untreated
From the text: as §1
FIG. 5. Galunisertib improves cell proliferation and the WNT signaling in the bulb epithelial compartment. a) Representative IHC images of tissue sections of HFOCs untreated and treated with Galunisertib and stained for KI67 and cleaved caspase 3. Nuclei were counterstained with DAPI. Scale bar, 100 μm. b,c) Adjusted intensity levels of KI67 and cleaved caspase 3 per DP and HB (bulb epithelium) areas, respectively, as measured in tissue sections from HFOCs with and without Galunisertib. All values are mean±SD of HFOCs established from n=8 donors (n>16 HFs per condition). ns p≥0.05, *p≤0.05 by unpaired t-test.
as §2

p-SMAD2 = assay: Immunohistochemistry of cryo-sectioned HFOCs: p-SMAD2; format: cell-based, human
From the text: as §1
(§3) FIG. 4. Galunisertib inhibits TGFβ2 paracrine signaling in the bulb epithelial compartment. a) Representative Immunohistochemistry (IHC) images of tissue sections of HFOCs untreated and treated with Galunisertib as indicated and stained for TGFβ2 and p-SMAD2. In the upper left frame is exemplified how the dermal papilla (DP) and adjacent bulb epithelial compartment (HB) regions were delineated for quantitative analyses shown in b-e. Nuclei were counterstained with DAPI. Scale bar, 100 μm. b-e) Adjusted intensity levels of TGFβ2 and p-SMAD2 per DP and HB areas as measured in tissue sections from untreated and Galunisertib-treated HFOCs. Values are mean±SD of HFOCs established from n=4 donors (n>9 HFs per condition). ns p≥0.05, *p≤0.05 by unpaired t-test.
as §2, with “temperature.” for “temperature. Antibodies are diluted in PBS-T+1% FBS and incubation done overnight at 4° C.”

TGFβ2 protein = assay: Immunohistochemistry of cryo-sectioned HFOCs: TGFβ2; format: cell-based, human
From the text: as §1, §3
as §2, with “temperature.” for “temperature. Antibodies are diluted in PBS-T+1% FBS and incubation done overnight at 4° C.”

[1] = tested on: Ki67 proliferation marker; assay: Ki67 immunohistochemistry of mouse dorsal skin (hair germ); format: in vivo
Procedure: FIG. 8. Galunisertib increases anagenic hair follicle growth. a) Hematoxilin-eosin staining of transversal paraffin sections of the dorsal skin of mice treated with vehicle (control), galunisertib (10 μM and 100 μM) or minoxidil at days 0, 5, 7, 14, 16 and 18 of treatment. Scale bar, 500 μm. b) Number of hair follicles per field view and c) number of hair follicles per field view in the subcutaneous layer at different timepoints along the experiment. d) Ki67 immunostaining of longitudinal paraffin sections of the dorsal skin of mice treated with vehicle (control), galunisertib (10 μM and 100 μM) or minoxidil at days 5, 7 and 14. Scale bar, 200 μm. e) Number of Ki67-positive cells in the hair bulb at days 5, 7 and 14. N≥3 animals per timepoint per condition were analyzed, and N≥4 field views were quantified per animal. Values are mean±SD. *p<0.05; **p<0.01 by Student's t-test.
For histology and immunohistochemistry, dorsal skin from the depilated region is collected from mice at different timepoints across the experiment (days 0, 5, 7, 14 and 18) and fixed in 10% buffered formalin, imbedded in paraffin and sectioned along the transversal and longitudinal plan of the hair follicles (3 μm sections). Standard protocol is used for hematoxylin and eosin staining. […]

[2] = bulb epithelial compartment surrounding the DP, Galunisertib 48 h vs untreated
[3] = dermal papilla, HFOCs with or without Galunisertib for 48 h

SMILES: Cc1cccc(-c2nn3c(c2-c2ccnc4ccc(C(N)=O)cc24)CCC3)n1 [Galunisertib]
- β-catenin intensity levels (β-catenin): significantly enhances
- fluorescence intensity levels of cleaved Caspase 3 (cleaved Caspase 3): do not show significant changes
- p-SMAD2 fluorescence intensity levels at the bulb epithelial compartment (p-SMAD2; [2]): decreased levels
- p-SMAD2 in DP (fluorescence intensity) (p-SMAD2; [3]): not significantly reduced
- TGFβ2 fluorescence intensity levels at the bulb epithelial compartment (TGFβ2 protein; [2]): decreased levels
- DP levels of TGFβ2 (fluorescence intensity) (TGFβ2 protein; [3]): isn't any significant change
- Ki67-positive cells in the hair germ, comparison with minoxidil ([1]; day 7): more effective than minoxidil
- number of Ki67-positive cells in the hair germ ([1]; days 5, 7 and 14 post-treatment, vs vehicle treatment): increased number of Ki67-positive cells
